The values that follow come from patent US5798382A, “2,3-dihydrobenzofuran derivatives, method for producing the same, and use thereof” (Asahi Kasei Kogyo Kabushiki Kaisha, priority 1994, dated 1998).

The target of one assay is adrenaline α1 receptor. Put plainly: Affinity for adrenaline α1 receptor: inhibition of 3H-Prazosin binding to rat cerebral cortex membrane fraction. Details: species or system rat (male SD strain). To be noted: for Ki: 3H-Prazosin, rat cerebral cortex membrane, 25° C. 30 min, tested as hydrochloride salt. As for the experimental part:
A male SD strain rat (7-week old; Charles River) was decapitated, and brain was taken out therefrom quickly. Cerebral cortex of the rat was separated and extracted at […] under ice cooling. The extracted cerebral cortex was frozen at -80° C. for 24 hours or longer. This frozen system was gradually thawed under ice cooling and then, 50 mM Tris-HCl buffer (pH 7.4) was added to the brain under ice cooling to obtain a suspension. The resultant suspension was homogenized, and then subjected to centrifugation at 48,000 g for 15 minutes, to thereby obtain a precipitate. The precipitate thus obtained was washed twice and resuspended in the same Tris-HCl buffer as used above. […] The total volume amount of the reaction mixture was 1 ml. The resultant reaction mixture was subjected to suction filtration using a Whatman GF/C filter, and the filter was washed three times in 50 mM Tris-HCl buffer (pH 7.4, 4 ml), transferred to a vial and then, the radioactivity of Prazosin absorbed on the filter was determined using a liquid scintillation counter. […] On the other hand, substantially the same procedure as mentioned above was repeated, except that 100 nM (final concentration) Prazosin was added to the ^3 H-Prazosin and ascorbic acid. The radioactivity of ^3 H-Prazosin adsorbed on the filter was determined in the same manner as mentioned above. […] Further, substantially the same procedure as mentioned above was repeated, except that, instead of Prazosin, a test compound was used in a predetermined concentration. The radioactivity of ^3 H-Prazosin adsorbed on the filter was determined in the same manner as mentioned above. […] The binding inhibition ratios were plotted, taking the logarithmic value of the concentration of the test compound as the abscissa value, and the binding inhibition ratio as the ordinate value. Then, a curve was drawn by the non-linear least square method.

The subject of another assay is Suncus murinus. Briefly: Activities against emesis: acceleration-stimulus induced emesis in suncus. In kind it is in vivo. To be noted: stimulus (4 cm, 1 Hz) 30 minutes after, 4 suncus, hydrochloride salt, physiological saline 0.55. The source says:
The activities of individual compounds against emesis were examined using Suncus murinus. Suncus murinus is a small animal belonging to the Soricidae family. It has been known that suncus is likely to suffer from motion sickness and is susceptible to occurrence of emesis [see "Seitai-no-kagaku (Science of living body)", 42, 538 (1990)]. Suncus is likely to show symptoms like the symptoms of human motion sickness under the stimulus of simple acceleration, finally leading to the occurrence of emesis. It has been known that a drug, such as cisplatin, has an emesis-inducing activity.
In this test, test compounds were individually administered intraperitoneally to suncus. 30 minutes after the administration, acceleration-stimulus (amplitude: 4 cm; frequency; 1 Hz) was given to the suncus, and the suncus thus treated was observed as to whether emesis occurred or not.
Each of the compounds (1) used in the above tests was tested in the form of a hydrochloride salt thereof, and represented in Table 3 by the compound number used in Examples described below.

With `O=C(NCCCCNCC1Cc2ccccc2O1)c1ccsc1` (centres unmarked) [Compound 107B, 2-{N-[4-(3-thienylcarbonylamino)butyl]}aminomethyl-2,3-dihydrobenzo[b]furan], the Ki (as a rule, a dissociation constant, usually derived from enzyme kinetics or from competition with a known ligand) on adrenaline α1 receptor worked out at 230 nM.
Still for that read-out and setting: under `CN(CCCCNC(=O)c1cccs1)CC1Cc2ccccc2O1` (single isomer, unassigned; (-)) [Compound 116A, (-)-2-{N-methyl-N-[4-(2-thienylcarbonylamino)butyl]}aminomethyl-2,3-dihydrobenzo[b]furan] stands 530 nM.
For `O=C(NCCNCC1Cc2ccccc2O1)c1cccc2ccccc12` (centres unmarked) [Compound 112B, 2-{N-[2-(1-naphthoylamino)ethyl]}aminomethyl-2,3-dihydrobenzo[b]furan], on adrenaline α1 receptor, the Ki came to 320 nM. Moreover, the “Time for occurrence of emesis” value in the assay on Suncus murinus (3 mg/kg intraperitoneally) is recorded as 6.03 min. sec.
In the case of `O=C(NCCCCNCC1Cc2ccccc2O1)c1ccco1` (centres unmarked) [Compound 108B, 2-{N-[4-(2-furylcarbonylamino)butyl]}aminomethyl-2,3-dihydrobenzo[b]furan], the “Time for occurrence of emesis” value in the assay with Suncus murinus (1 mg/kg intraperitoneally) worked out at 4.56 min. sec.
`O=C(NCCCCNCC1Cc2ccccc2O1)c1cccs1` (single isomer, unassigned; (-)) [Compound 111A, (-)-2-{N-[4-(2-thienylcarbonylamino)butyl]}aminomethyl-2,3-dihydrobenzo-[b]furan]: the Ki at adrenaline α1 receptor was found to be 160 nM.
On to `CCN(CCCCNC(=O)c1cccs1)CC1Cc2ccccc2O1` (single isomer, unassigned; (-)) [Compound 117A, (-)-2-{N-ethyl-N-[4-(2-thienylcarbonylamino)butyl]}aminomethyl-2,3-dihydrobenzo[b]furan], for which the Ki on adrenaline α1 receptor turned out to be 580 nM.
Consider `O=C(NCCCNCC1Cc2ccccc2O1)c1cccc2ccccc12` (centres unmarked) [Compound 113B, 2-{N-[3-(1-naphthoylamino)propyl]}aminomethyl-2,3-dihydrobenzo[b]furan], for which the inhibition constant Ki on adrenaline α1 receptor was determined as 95 nM. The “Time for occurrence of emesis” value with Suncus murinus (1 mg/kg intraperitoneally) was determined as 7.44 min. sec.
Turning to `O=C(NCCCCNCC1Cc2ccccc2O1)c1ccc2ccccc2c1` (centres unmarked) [Compound 102B, 2-{N-[4-(2-naphthoylamino)butyl]}aminomethyl-2,3-dihydrobenzo[b]furan], on adrenaline α1 receptor, the Ki amounted to 140 nM.
`O=S(=O)(NCCCCNCC1Cc2ccccc2O1)c1cccc2ccccc12` (centres unmarked) [Compound 114B, 2-{N-[4-(1-naphthylsulfonylamino)butyl]}aminomethyl-2,3-dihydrobenzo[b]furan]: the Ki at adrenaline α1 receptor amounted to 96 nM. Further, the “Time for occurrence of emesis” value in the assay with Suncus murinus (1 mg/kg intraperitoneally) was found to be 3.50 min. sec.
With `COc1cc2nc(N3CCN(C(=O)c4ccco4)CC3)nc(N)c2cc1OC` [^3 H-Prazosin, reference compound], the Kd (as a rule, the equilibrium constant for the complex coming apart) on adrenaline α1 receptor (radioactive ligand, used in Ki calculation) is 0.133 nM.
For `O=C(NCCCCNCC1Cc2ccccc2O1)c1cccs1` (centres unmarked) [Compound 106B, 2-{N-[4-(2-thienylcarbonylamino)butyl]}aminomethyl-2,3-dihydrobenzo[b]furan], on adrenaline α1 receptor, the Ki was 240 nM. Also, in the assay with Suncus murinus (1 mg/kg intraperitoneally), the “Time for occurrence of emesis” value stood at 8.50 min. sec.
With `O=C(NCCCCNCC1Cc2ccccc2O1)c1cccc2ccccc12` (centres unmarked) [Compound 101B, 2-{N-[4-(1-naphthoylamino)butyl]}aminomethyl-2,3-dihydrobenzo[b]furan], on adrenaline α1 receptor, the Ki was determined as 150 nM.
Regarding `O=S(=O)(NCCCCNCC1Cc2ccccc2O1)c1ccc2ccccc2c1` (centres unmarked) [Compound 115B, 2-{N-[4-(2-naphthylsulfonylamino)butyl]}aminomethyl-2,3-dihydrobenzo[b]furan], in the assay on Suncus murinus (1 mg/kg intraperitoneally), the “Time for occurrence of emesis” value was 5.56 min. sec.
